Experimental data as given in ChEMBL document CHEMBL1134067, “Modeling of the binding mode of a non-covalent inhibitor of the 20S proteasome. Application to structure-based analogue design” (Bioorg Med Chem Lett, 2001).

Species: Homo sapiens
Experiment: In vitro inhibitory concentration against Chymotrypsin-like catalytic activity of the human 20S Proteasome
Type: functional

IC50: > 20 µM
SMILES: COc1ccc(CN[C@@H](C(=O)N[C@H](C(=O)NCc2ccc(OC)cc2OC)C(C)C)[C@H](O)[C@H](Cc2ccccc2)NC(=O)[C@@H](NC(=O)OCc2ccccc2)C(C)C)cc1
